Results reported in patent US20030129629A1, “Methods and compositions for the identification, assessment, prevention, and therapy of human cancers” (Millennium Pharmaceuticals, Inc., priority 2000, published 2003).
Read-outs that look alike come from different tables or passages of the source.

Key:
[1] = tested on: 60 cancer cell lines (NCI 60 cancer cell line series); assay: NCI-DTP in vitro cancer screen, sulforhodamine B (SRB) growth inhibition, 48 hour exposure; assay type: cell-based, human
In short: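 NCI-DTP panel of 60 cancer cell lines plated day 0 at line-specific densities, exposed from day 1 to compound at 5 ten-fold-spaced doses in duplicate wells. After 48 h, cell mass stained with sulforhodamine B; −log GI50 derived from dose–response curves, averaged, and classed Low, Medium or High sensitivity.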

[2] = tested on: 60 cancer cell lines (NCI 60 cancer cell line series); conditions: cited from earlier work

O=c1[nH]cc(F)c(=O)[nH]1 [5-Fluorouracil]
classification of cell line as Low(1), Medium(2), High(3) sensitivity to compound ([1]; Breast BT-549 CL5013): 1 | classification of cell line as Low(1), Medium(2), High(3) sensitivity to compound ([1]; Breast HS-578T CL5006): 1 | classification of cell line as Low(1), Medium(2), High(3) sensitivity to compound ([1]; Breast MCF7(I) CL5001): 3 | classification of cell line as Low(1), Medium(2), High(3) sensitivity to compound ([1]; Breast MCF7/ADRr CL5002): 2 | classification of cell line as Low(1), Medium(2), High(3) sensitivity to compound ([1]; Breast MDA-MB-231 CL5005): 1 | classification of cell line as Low(1), Medium(2), High(3) sensitivity to compound ([1]; Breast MDA-MB-435 CL5011): 2 | classification of cell line as Low(1), Medium(2), High(3) sensitivity to compound ([1]; Breast MDA-N CL5012): 2 | classification of cell line as Low(1), Medium(2), High(3) sensitivity to compound ([1]; Breast T-47D CL5014): 2 | classification of cell line as Low(1), Medium(2), High(3) sensitivity to compound ([1]; CNS SF-268 CL12014): 2 | classification of cell line as Low(1), Medium(2), High(3) sensitivity to compound ([1]; CNS SF-295 CL12015): 2 | classification of cell line as Low(1), Medium(2), High(3) sensitivity to compound ([1]; CNS SF-539 CL12016): 3 | classification of cell line as Low(1), Medium(2), High(3) sensitivity to compound ([1]; CNS SNB-19 CL12002): 1 | classification of cell line as Low(1), Medium(2), High(3) sensitivity to compound ([1]; CNS SNB-75(I) CL12005): 1 | classification of cell line as Low(1), Medium(2), High(3) sensitivity to compound ([1]; CNS U251(I) CL12009): 2 | classification of cell line as Low(1), Medium(2), High(3) sensitivity to compound ([1]; Colon COLO-250 CL4010): 2 | classification of cell line as Low(1), Medium(2), High(3) sensitivity to compound ([1]; Colon HCC-2998 CL4002): 3 | classification of cell line as Low(1), Medium(2), High(3) sensitivity to compound ([1]; Colon HCT-15 CL4015): 2 | classification of cell line as Low(1), Medium(2), High(3) sensitivity to compound ([1]; Colon HCT-116 CL4003): 3 | classification of cell line as Low(1), Medium(2), High(3) sensitivity to compound ([1]; Colon HT29(I) CL4001): 2 | classification of cell line as Low(1), Medium(2), High(3) sensitivity to compound ([1]; Colon KM12 CL4017): 2 | classification of cell line as Low(1), Medium(2), High(3) sensitivity to compound ([1]; Colon SW-620 CL4009): 2 | classification of cell line as Low(1), Medium(2), High(3) sensitivity to compound ([1]; Leukemia CCRF-CEM(I) CL7003): 2 | classification of cell line as Low(1), Medium(2), High(3) sensitivity to compound ([1]; Leukemia HL-60(I) CL7008): 2 | classification of cell line as Low(1), Medium(2), High(3) sensitivity to compound ([1]; Leukemia K562(I) CL7005): 2 | classification of cell line as Low(1), Medium(2), High(3) sensitivity to compound ([1]; Leukemia MOLT-4 CL7006): 2 | classification of cell line as Low(1), Medium(2), High(3) sensitivity to compound ([1]; Leukemia RPMI-8226(I) CL7010): 3 | classification of cell line as Low(1), Medium(2), High(3) sensitivity to compound ([1]; Leukemia SR CL7019): 2 | classification of cell line as Low(1), Medium(2), High(3) sensitivity to compound ([1]; Melanoma LOX IMVI CL10001): 2 | classification of cell line as Low(1), Medium(2), High(3) sensitivity to compound ([1]; Melanoma M14 CL10014): 2 | classification of cell line as Low(1), Medium(2), High(3) sensitivity to compound ([1]; Melanoma MALME-3M CL10002): 2 | classification of cell line as Low(1), Medium(2), High(3) sensitivity to compound ([1]; Melanoma SK-MEL-2 CL10005): 1 | classification of cell line as Low(1), Medium(2), High(3) sensitivity to compound ([1]; Melanoma SK-MEL-28 CL10008): 2 | sensitivity classification Low(1)/Medium(2)/High(3) ([1]; NSCLC NCI-H23(I) CL1001): 2 | sensitivity classification Low(1)/Medium(2)/High(3) ([1]; NSCLC NCI-H332M CL1017): 2 | sensitivity classification Low(1)/Medium(2)/High(3) ([1]; NSCLC NCI-H460 CL1021): 3 | sensitivity classification Low(1)/Medium(2)/High(3) ([1]; NSCLC NCI-H522 CL1003): 2 | sensitivity classification Low(1)/Medium(2)/High(3) ([1]; Ovarian IGROV1 CL6010): 2 | sensitivity classification Low(1)/Medium(2)/High(3) ([1]; Ovarian OVCAR-3 CL6001): 2 | sensitivity classification Low(1)/Medium(2)/High(3) ([1]; Ovarian OVCAR-4 CL6002): 2 | sensitivity classification Low(1)/Medium(2)/High(3) ([1]; Ovarian OVCAR-5 CL6003): 1 | sensitivity classification Low(1)/Medium(2)/High(3) ([1]; Ovarian OVCAR-8 CL6005): 2 | sensitivity classification Low(1)/Medium(2)/High(3) ([1]; Ovarian SK-OV-3 CL6011): 1 | sensitivity classification Low(1)/Medium(2)/High(3) ([1]; Prostate DU-145 CL11003): 2 | sensitivity classification Low(1)/Medium(2)/High(3) ([1]; Prostate PC-3(I) CL11001): 2 | sensitivity classification Low(1)/Medium(2)/High(3) ([1]; Renal 786-0 CL9018): 2 | sensitivity classification Low(1)/Medium(2)/High(3) ([1]; Renal A498 CL9013): 2 | sensitivity classification Low(1)/Medium(2)/High(3) ([1]; Renal ACHN CL9023): 2 | sensitivity classification Low(1)/Medium(2)/High(3) ([1]; Renal CAKI-1 CL9015): 3 | sensitivity classification Low(1)/Medium(2)/High(3) ([1]; Renal RXF-393 CL9016): 2 | sensitivity classification Low(1)/Medium(2)/High(3) ([1]; Renal SN12C CL9008): 2 | sensitivity classification Low(1)/Medium(2)/High(3) ([1]; Renal TK10 CL9024): 1 | sensitivity classification Low(1)/Medium(2)/High(3) ([1]; Renal UO-31 CL9004): 2 | −Log (GI50) ([2]; Melanoma SK-MEL-2 CL10005): 3.3 | −Log (GI50) ([2]; Melanoma SK-MEL-5 CL10007): 4.9 | −Log (GI50) ([2]; Melanoma SK-MEL-28 CL10008): 4.5 | −Log (GI50) ([2]; Melanoma UACC-62 CL10020): 4.9 | −Log (GI50) ([2]; Melanoma UACC-257 CL10021): 3.9 | −Log (GI50) ([2]; NSCLC A549/ATCC CL1004): 5.7 | −Log (GI50) ([2]; NSCLC EKVX CL1008): 3.3 | −Log (GI50) ([2]; NSCLC HOP-62 CL1026): 4.8 | −Log (GI50) ([2]; NSCLC HOP-92 CL1029): 4.0 | −Log (GI50) ([2]; NSCLC NCI-H226 CL1013): 3.6
